Target: T1, Sirt6 (Homo sapiens, UniProt Q8N6T7)
T1 construct: purchased CycLex CY-1156V2
Test: Measurement of Sirt6 Activity (CycLex Sirt6 Deacetylase Fluorometric Assay Kit)
Format: biochemical
Settings: compound at 10 μM; fluorescence relative to the group without compound treatment (positive control group)
Method: LC-MS (ESI, m/z)=430.1 (M+H^+) Experimental Example 1: Measurement of Sirt6 Activity Compounds having Sirt6 activity were selected using a CycLex Sirt6 Deacetylase Fluorometric Assay Kit (cat. CY-1156V2) manufactured by CycLex.
When a fluorescent-attached acetylated lysine substrate is treated with Sirt6 enzyme, Sirt6 deacetylates the acetylated lysine of the substrate and lysylendopeptidase cleaves the C-terminal peptide bond connected to the lysine, by which fluorescence is emitted. The activity of a compound is calculated by observing the intensity of fluorescence when the compound is treated along with Sirt6 enzyme. When treating the compound, the compound aids in the activity of Sirt6 enzyme, so as to result in stronger fluorescence. Therefore, by calculating the ratio of the stronger fluorescence relative to the fluorescence emitted from the group without compound treatment (i.e., positive control group), relative activity can be calculated.
Activity evaluation was performed according to the following procedure.
The compound whose activity is to be evaluated was prepared by diluting in phosphate-buffered saline (PBS) to 10 times of the desired concentration (e.g., when measuring Sirt6 assay activity at 10 μM, the compound is prepared at a concentration of 100 μM in PBS). 1 μL of a 1 Ox Sirt6 assay buffer, 0.8 μL of 50× fluoro-substrate peptide, 1 μL of nicotinamide adenine dinucleotide (NAD), 1 μL of a developer and 4.2 μL of H2O were mixed to prepare mixtures equal to the number of samples, and 8 μL was dispensed into each Black 384 well. An additional 1 μL of PBS was added to each of a “no enzyme group” and a positive control group, and 1 μL of the compound diluted in PBS was added to an activity evaluation group. Recombinant Sirt6 was 1:8 diluted in a 1×Sirt6 assay buffer, and 1 μL thereof was added to each of the positive control group and the activity evaluation group. 1 μL of the 1×Sirt6 assay buffer was added to the “no enzyme group.” After reacting at room temperature for one hour, results were measured with a fluorescence spectrometer (excitation: 490±10 nm, emission: 530±10 nm) to confirm the presence or absence of Sirt6 activity and measure the intensity of the activity.

T1 sequence (Q8N6T7 whole entry): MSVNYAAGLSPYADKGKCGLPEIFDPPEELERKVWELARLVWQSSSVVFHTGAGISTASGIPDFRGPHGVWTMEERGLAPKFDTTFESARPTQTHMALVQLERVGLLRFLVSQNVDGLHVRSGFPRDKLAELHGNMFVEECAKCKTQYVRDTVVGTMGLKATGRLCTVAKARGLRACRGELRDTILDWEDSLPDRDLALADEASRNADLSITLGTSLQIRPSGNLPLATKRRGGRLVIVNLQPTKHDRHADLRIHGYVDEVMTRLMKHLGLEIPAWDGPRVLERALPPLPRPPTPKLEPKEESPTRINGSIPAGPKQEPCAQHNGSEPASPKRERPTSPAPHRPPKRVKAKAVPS

SMILES | Sirt6 Activity (% activity, 10 μM)
C/[N+]([O-])=C/c1cccc(-c2nn(-c3ccccc3)c(=O)c3ccccc23)c1 [Example 13, (Z)—N-Methyl-1-(3-(4-oxo-3-phenyl-3,4-dihydrophthalazin-1-yl)phenyl)methanimine Oxide] | 181 % activity
CC(C)/[N+]([O-])=C/c1cccc(-c2nn(-c3ccccc3)c(=O)c3ccccc23)c1 [Example 14, (Z)—N-Isopropyl-1-(3-(4-oxo-3-phenyl-3,4-dihydrophthalazin-1-yl)phenyl)methanimine Oxide] | 121 % activity
CS(=O)(=O)N(c1cc(-c2nn(-c3ccccc3)c(=O)c3ccccc23)ccc1Cl)S(C)(=O)=O [Example 18, N-(2-Chloro-5-(4-oxo-3-phenyl-3,4-dihydrophthalazin-1-yl)phenyl)-N-(methylsulfonyl)methane-sulfonamide] | 114 % activity
CN(C)S(=O)(=O)Nc1cc(-c2nn(-c3ccccc3)c(=O)c3ccccc23)ccc1Cl [Example 19, N-(3-(3-(Phenyl)-4-oxo-3,4-dihydrophthalazin-1-yl)-6-chlorophenyl)dimethyl Sulfamoylamide] | 120 % activity
C/[N+]([O-])=C/c1cccc(-c2nn(-c3ccc(F)cc3F)c(=O)c3ccccc23)c1 [Example 21, (Z)-1-(3-(3-(2,4-Difluorophenyl)-4-oxo-3,4-dihydrophthalazin-1-yl)phenyl)-N-methyl methanimine Oxide] | 167 % activity
CC(C)/[N+]([O-])=C/c1cccc(-c2nn(-c3ccc(F)cc3F)c(=O)c3ccccc23)c1 [Example 22, (Z)-1-(3-(3-(2,4-Difluorophenyl)-4-oxo-3,4-dihydrophthalazin-1-yl)phenyl)-N-isopropyl Methanimine Oxide] | 201 % activity
CC(C)(C)/[N+]([O-])=C/c1cccc(-c2nn(-c3ccc(F)cc3F)c(=O)c3ccccc23)c1 [Example 23, (Z)—N-tert-Butyl-1-(3-(3-(2,4-difluorophenyl)-4-oxo-3,4-dihydrophthalazin-1-yl)phenyl)methanimine Oxide] | 192 % activity
Nc1cccc(-c2nn(-c3ccc(F)cc3F)c(=O)c3ccccc23)c1 [Example 24, 4-(3-Aminophenyl)-2-(2,4-difluorophenyl)phthalazin-1(2H)-one] | 147 % activity
COC(=O)NS(=O)(=O)Nc1cccc(-c2nn(-c3ccc(F)cc3F)c(=O)c3ccccc23)c1 [Example 26, Methyl (N-(3-(3-(2,4-difluorophenyl)-4-oxo-3,4-dinydrophthalazin-1-yl)phenyl)sulfamoyl)carbamate] | 180 % activity
C/[N+]([O-])=C/c1cccc(-c2nn(-c3cccc(F)c3)c(=O)c3ccccc23)c1 [Example 27, (Z)-1-(3-(3-(3-Fluorophenyl)-4-oxo-3,4-dihydrophthalazin-1-yl)phenyl)-N-methylmethanimine Oxide] | 148 % activity
CC(C)/[N+]([O-])=C/c1cccc(-c2nn(-c3cccc(F)c3)c(=O)c3ccccc23)c1 [Example 28, (Z)-1-(3-(3-(3-Fluorophenyl)-4-oxo-3,4-dihydrophthalazin-1-yl)phenyl)-N-isopropylmethanimine Oxide] | 154 % activity
CC(C)(C)/[N+]([O-])=C/c1cccc(-c2nn(-c3cccc(F)c3)c(=O)c3ccccc23)c1 [Example 29, (Z)—N-tert-Butyl-1-(3-(3-(3-fluorophenyl)-4-oxo-3,4-dihydrophthalazin-1-yl)phenyl)methanimine Oxide] | 162 % activity

Second part, the molecule after the results:

Sirt6 Activity (% activity, 10 μM) | SMILES
170 % activity | CCS(=O)(=O)Nc1cccc(-c2nn(-c3ccccc3)c(=O)c3ccccc23)c1 [Example 1, N-(3-(4-Oxo-3-phenyl-3,4-dihydrophthalazin-1-yl)phenyl)ethanesulfonamide]
88 % activity | Nc1cccc(-c2nn(-c3ccc(C(F)(F)F)cc3)c(=O)c3ccccc23)c1 [Example 2, 4-(3-Aminophenyl)-2-(4-(trifluoromethyl)phenyl)phthalazin-1(2H)-one]
104 % activity | CCS(=O)(=O)Nc1cccc(-c2nn(-c3ccc(C(F)(F)F)cc3)c(=O)c3ccccc23)c1 [Example 3, N-(3-(4-Oxo-3-(4-(trifluoromethyl)phenyl)-3,4-dihydrophthalazin-1-yl)phenyl)ethanesulfonamide]
102 % activity | CCNc1cccc(-c2nn(-c3ccc(C(F)(F)F)cc3)c(=O)c3ccccc23)c1 [Example 4, 4-(3-(Ethylamino)phenyl)-2-(4-(trifluoro-methyl)phenyl)phthalazin-1(2H)-one]
105 % activity | CCS(=O)(=O)N(C)c1cccc(-c2nn(-c3ccc(C(F)(F)F)cc3)c(=O)c3ccccc23)c1 [Example 5, N-Methyl-N-(3-(4-oxo-3-(4-(trifluoromethyl)phenyl)-3,4-dihydrophthalazin-1-yl)phenyl)ethanesulfonamide]
102 % activity | CS(=O)(=O)Nc1cccc(-c2nn(-c3ccccc3)c(=O)c3ccccc23)c1 [Example 6, N-(3-(4-Oxo-3-phenyl-3,4-dihydrophthalazin-1-yl)phenyl)methanesulfonamide]
173 % activity | CN(c1cccc(-c2nn(-c3ccccc3)c(=O)c3ccccc23)c1)S(C)(=O)=O [Example 7, N-Methyl-N-(3-(4-oxo-3-phenyl-3,4-dihydro-phthalazin-1-yl)phenyl)methanesulfonamide]
100 % activity | CCS(=O)(=O)Nc1ccc(-c2nn(-c3ccccc3)c(=O)c3ccccc23)cc1 [Example 8, N-(4-(4-Oxo-3-phenyl-3,4-dihydrophthalazin-1-yl)phenyl)ethanesulfonamide]
154 % activity | CN(C)S(=O)(=O)Nc1cccc(-c2nn(-c3ccccc3)c(=O)c3ccccc23)c1 [Example 9]
198 % activity | CS(=O)(=O)Nc1cccc(-c2nn(-c3ccc(F)cc3)c(=O)c3ccccc23)c1 [Example 10, N-(3-(3-(4-Fluorophenyl)-4-oxo-3,4-dihydrophthalazin-1-yl)phenyl)methanesulfonamide]
162 % activity | CCS(=O)(=O)Nc1cccc(-c2nn(-c3ccc(F)cc3)c(=O)c3ccccc23)c1 [Example 11, N-(3-(3-(4-Fluorophenyl)-4-oxo-3,4-dihydrophthalazin-1-yl)phenyl)ethanesulfonamide]
189 % activity | CN(C)S(=O)(=O)Nc1cccc(-c2nn(-c3ccc(F)cc3)c(=O)c3ccccc23)c1 [Example 12, N-(3-(3-(4-Fluorophenyl)-4-oxo-3,4-dihydrophthalazin-1-yl)phenyl)dimethylsulfamoylamide]
231 % activity | C/[N+]([O-])=C/c1cccc(-c2nn(-c3ccc(F)cc3)c(=O)c3ccccc23)c1 [Example 15, (Z)-1-(3-(3-(4-Fluorophenyl)-4-oxo-3,4-dihydrophthalazin-1-yl)phenyl)-N-methylmethanimine Oxide]
221 % activity | CC/[N+]([O-])=C/c1cccc(-c2nn(-c3ccc(F)cc3)c(=O)c3ccccc23)c1 [Example 16, (Z)—N-Ethyl-1-(3-(3-(4-fluorophenyl)-4-oxo-3,4-dihydrophthalazin-1-yl)phenyl)methanimine Oxide]
211 % activity | COC(=O)NS(=O)(=O)Nc1cccc(-c2nn(-c3ccc(F)cc3)c(=O)c3ccccc23)c1 [Example 20, Methyl (N-(3-(3-(4-fluorophenyl)-4-oxo-3,4-dihydrophthalazin-1-yl)phenyl)sulfamoyl) Carbamate]
147 % activity | CCS(=O)(=O)Nc1cccc(-c2nn(-c3ccc(F)cc3F)c(=O)c3ccccc23)c1 [Example 25, N-(3-(3-(2,4-Difluorophenyl)-4-oxo-3,4-dihydrophthalazin-1-yl)phenyl)ethanesulfonamide]
117 % activity | CCS(=O)(=O)Nc1cccc(-c2nn(-c3cccc(F)c3)c(=O)c3ccccc23)c1 [Example 30, N-(3-(3-(3-Fluorophenyl)-4-oxo-3,4-dihydrophthalazin-1-yl)phenyl)ethanesulfonamide]

Same assay, conditions: compound at 10 μM; fluorescence relative to the group without compound treatment (positive control group); 10 µM

Sirt6 Activity (% activity, 10 μM) | SMILES
207 % activity | CC(C)/[N+]([O-])=C/c1cccc(-c2nn(-c3ccc(F)cc3)c(=O)c3ccccc23)c1 [Example 17, (Z)-1-(3-(3-(4-Fluorophenyl)-4-oxo-3,4-dihydrophthalazin-1-yl)phenyl)-N-isopropylmethanimine Oxide]
